Laboratory results published in publication PMC13489962, “Small-molecule modulation of β-arrestins” (Nature, 2026).

Target: T1, βARR1 coupling to pβ2V2R (Rattus norvegicus, UniProt P29066)
T1 construct: βARR1 or βARR2 construct, with their C terminus truncated (at amino acid 393 or 394, respectively); GST (pGEX4T1) (N, cleaved yes); made in house; host or cells: βARR1: E. coli BL21 (DE3) pLysS; receptor: Sf9 membranes, co-expressed with GRK2–CAAX
Assay: [3H]-Fen high-affinity agonist binding promoted by βARR1 at pβ2V2R
Format: biochemical
Conditions: βARR1 2 μM, [3H]-Fen 6 nM, read-out: inhibition of βARR1-mediated stabilization of the high-affinity β2V2R state
Method: The N-terminal Flag-tagged T4 lysozyme fusion-β2V2R construct (β2AR residues 1–341 fused to V2R residues 328–372), bearing a TEV cleavage site, was co-expressed with GRK2–CAAX (membrane-anchored GRK2) or wild-type β2AR in Sf9 insect cells using the Baculovirus Expression System, as described previously[44],[62],[63],[68],[69]. At 66 h after infection, cells expressing T4L–β2V2R were stimulated with 20 μM isoproterenol for 20 min at 37 °C to induce receptor phosphorylation (pβ2V2R), while β2AR-expressing cells remained untreated. All cells were washed extensively to remove residual agonist. For membrane preparation from these cells, briefly, cells were resuspended in cold homogenization buffer (75 mM Tris-HCl, pH 7.4, 2 mM EDTA, and cOmplete protease inhibitor) and collected by centrifugation at 500g for 5 min at 4 °C. […]
To assess the effects of β-arrestin modulators on β-arrestin- or Gαs–βγ-promoted high-affinity agonist binding, [^3H]-Fen binding assays were performed using membranes from Sf9 cells expressing phosphorylated β2V2R (pβ2V2R) or β2AR[28]. […] Bound [^3H]-Fen was extracted overnight in scintillation fluid and quantified by scintillation counting. Specific binding was calculated by subtracting nonspecific from total binding.

T1 sequence (P29066 1-393): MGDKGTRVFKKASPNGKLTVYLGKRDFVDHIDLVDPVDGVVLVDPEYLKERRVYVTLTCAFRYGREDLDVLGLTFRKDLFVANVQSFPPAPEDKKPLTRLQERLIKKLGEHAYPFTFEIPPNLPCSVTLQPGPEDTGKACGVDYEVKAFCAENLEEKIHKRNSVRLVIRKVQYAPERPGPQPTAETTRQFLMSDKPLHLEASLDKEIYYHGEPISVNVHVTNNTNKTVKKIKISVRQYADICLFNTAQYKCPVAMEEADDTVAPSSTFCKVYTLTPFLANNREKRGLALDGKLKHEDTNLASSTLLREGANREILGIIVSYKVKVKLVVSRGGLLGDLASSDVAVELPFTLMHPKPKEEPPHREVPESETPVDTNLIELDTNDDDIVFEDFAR

SMILES: C=C1C(=O)[C@]23[C@H](O)[C@H]1CC[C@H]2[C@@]12CO[C@]3(O)[C@@H](O)[C@@H]1C(C)(C)CC[C@@H]2O [Cmpd-5, (1S,4aR,5S,6S,6aR,9S,11aS,11bS,14R)-1,5,6,14-tetrahydroxy−4,4-dimethyl-8-methylenedecahydro-1H-6,11b-(epoxymethano)-6a,9-methanocyclohepta[a]naphthalen-7(8H)-one]
- inhibition at 100 µM: ~40%
